Tests used:
[1] = tested on: iHeps; experiment: Differentiation of human iPS-derived hepatocytes (iHeps): morphology and immunofluorescent staining; type: cell-based
Protocol: (§1) The ability of compounds of the invention to affect the differentiation and maturation of iHeps was tested. Undifferentiated iPS cells were cultured on Matrigel, supported by primary mouse embryonic fibroblasts. Once confluent, iPS cells were transitioned to differentiation media, with sequential addition of growth factors (Activin A, BMP-4, bFGF, HGF, and OSM) to guide differentiation, first into endoderm, then into hepatic progenitor cells and finally into iHeps. Compound treatment started on day 21 post initiation of differentiation and acted over a period of 9 days. FH1 and FPH2 were used to treat iHeps. FH1 doubled albumin secretion during primary screening (FIG. 4A left) in a dose-responsive manner (FIG. 4A right).
To examine the effects of FH1 and FPH2 at the protein level, AFP, albumin and CYP3A4 levels weew visualized via immunofluorescent staining. […] This is in agreement with primary screening results as well as earlier morphological findings. Untreated cultures had islands that double stain for albumin and the fetal marker AFP, with very little presence of the mature marker CYP3A4.

[2] = target: DAPK1 (Homo sapiens, UniProt P53355); experiment: Kinome analysis (panel of kinases); type: biochemical
Protocol: (§2) Selected compounds of the invention (FPH1 and FPH2; both at 1 μM concentration) were screened against a panel of kinases (FIG. 17).

[3] = target: RSK4 (Homo sapiens, UniProt Q9UK32); experiment: Kinome analysis (panel of kinases); type: biochemical
Protocol: as §2

[4] = target: eEF-2K (Homo sapiens, UniProt O00418); experiment: Kinome analysis (panel of kinases); type: biochemical
Protocol: as §2

[5] = target: MAPKAPKV (PRAK) (Homo sapiens, UniProt Q8IW41); experiment: Kinome analysis (panel of kinases); type: biochemical; conditions: read-out: MAPKAPKV (PRAK) inhibition
Protocol: as §2

[6] = target: NEK2 (Homo sapiens, UniProt P51955); experiment: Kinome analysis (panel of kinases); type: biochemical
Protocol: as §2

[7] = target: ALK (Homo sapiens, UniProt Q9UM73); experiment: Kinome analysis (panel of kinases); type: biochemical
Sequence of ALK (Q9UM73 19-1620, species assumed): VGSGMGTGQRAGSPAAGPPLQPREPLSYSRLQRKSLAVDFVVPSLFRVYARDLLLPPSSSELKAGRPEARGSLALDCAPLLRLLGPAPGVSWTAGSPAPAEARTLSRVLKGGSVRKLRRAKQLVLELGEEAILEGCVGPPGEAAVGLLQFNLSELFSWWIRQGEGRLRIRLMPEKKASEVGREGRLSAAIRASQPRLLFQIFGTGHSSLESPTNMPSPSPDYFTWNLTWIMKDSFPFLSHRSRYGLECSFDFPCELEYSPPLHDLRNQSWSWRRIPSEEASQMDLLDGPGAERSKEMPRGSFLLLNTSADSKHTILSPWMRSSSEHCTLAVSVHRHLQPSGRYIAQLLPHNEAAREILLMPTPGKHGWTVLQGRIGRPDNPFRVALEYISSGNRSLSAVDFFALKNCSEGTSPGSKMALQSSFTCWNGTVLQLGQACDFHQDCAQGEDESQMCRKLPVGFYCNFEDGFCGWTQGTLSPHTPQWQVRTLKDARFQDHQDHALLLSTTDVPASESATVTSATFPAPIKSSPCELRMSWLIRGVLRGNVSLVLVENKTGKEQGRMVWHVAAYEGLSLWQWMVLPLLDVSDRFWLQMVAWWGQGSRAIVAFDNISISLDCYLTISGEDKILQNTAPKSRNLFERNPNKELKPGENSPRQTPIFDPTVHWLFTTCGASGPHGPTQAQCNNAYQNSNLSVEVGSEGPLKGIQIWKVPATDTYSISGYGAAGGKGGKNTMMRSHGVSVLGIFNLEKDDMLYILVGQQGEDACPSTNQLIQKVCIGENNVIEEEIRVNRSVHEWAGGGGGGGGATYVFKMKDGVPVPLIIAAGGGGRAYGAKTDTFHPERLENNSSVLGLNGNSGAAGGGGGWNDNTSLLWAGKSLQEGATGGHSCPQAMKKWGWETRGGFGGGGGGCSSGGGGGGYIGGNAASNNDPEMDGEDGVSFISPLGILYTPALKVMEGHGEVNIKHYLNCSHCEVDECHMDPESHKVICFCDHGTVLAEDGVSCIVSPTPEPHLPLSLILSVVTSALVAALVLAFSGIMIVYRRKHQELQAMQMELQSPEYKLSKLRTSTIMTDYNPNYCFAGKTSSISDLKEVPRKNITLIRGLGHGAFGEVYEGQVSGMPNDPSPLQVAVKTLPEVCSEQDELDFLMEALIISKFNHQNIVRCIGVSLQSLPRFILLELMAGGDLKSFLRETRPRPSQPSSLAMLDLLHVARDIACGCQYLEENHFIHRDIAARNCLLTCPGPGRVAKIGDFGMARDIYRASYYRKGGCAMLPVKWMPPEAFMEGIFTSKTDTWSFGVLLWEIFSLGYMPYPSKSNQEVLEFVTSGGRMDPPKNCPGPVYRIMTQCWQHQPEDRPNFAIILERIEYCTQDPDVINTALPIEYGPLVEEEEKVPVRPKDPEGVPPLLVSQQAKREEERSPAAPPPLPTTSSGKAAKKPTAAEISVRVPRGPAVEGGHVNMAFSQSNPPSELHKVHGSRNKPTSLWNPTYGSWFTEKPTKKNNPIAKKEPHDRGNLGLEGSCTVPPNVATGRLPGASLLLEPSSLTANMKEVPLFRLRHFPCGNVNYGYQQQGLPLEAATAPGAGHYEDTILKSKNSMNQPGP
Protocol: as §2

[8] = target: CDK5 (Homo sapiens, UniProt Q00535); experiment: Kinome analysis (panel of kinases); type: biochemical
Protocol: as §2

[9] = target: NEK9 (Homo sapiens, UniProt Q8TD19); experiment: Kinome analysis (panel of kinases); type: biochemical
Protocol: as §2

[10] = target: FAK (Homo sapiens, UniProt Q05397); experiment: Kinome analysis (panel of kinases); type: biochemical
Sequence of FAK (Q05397 whole entry, species assumed): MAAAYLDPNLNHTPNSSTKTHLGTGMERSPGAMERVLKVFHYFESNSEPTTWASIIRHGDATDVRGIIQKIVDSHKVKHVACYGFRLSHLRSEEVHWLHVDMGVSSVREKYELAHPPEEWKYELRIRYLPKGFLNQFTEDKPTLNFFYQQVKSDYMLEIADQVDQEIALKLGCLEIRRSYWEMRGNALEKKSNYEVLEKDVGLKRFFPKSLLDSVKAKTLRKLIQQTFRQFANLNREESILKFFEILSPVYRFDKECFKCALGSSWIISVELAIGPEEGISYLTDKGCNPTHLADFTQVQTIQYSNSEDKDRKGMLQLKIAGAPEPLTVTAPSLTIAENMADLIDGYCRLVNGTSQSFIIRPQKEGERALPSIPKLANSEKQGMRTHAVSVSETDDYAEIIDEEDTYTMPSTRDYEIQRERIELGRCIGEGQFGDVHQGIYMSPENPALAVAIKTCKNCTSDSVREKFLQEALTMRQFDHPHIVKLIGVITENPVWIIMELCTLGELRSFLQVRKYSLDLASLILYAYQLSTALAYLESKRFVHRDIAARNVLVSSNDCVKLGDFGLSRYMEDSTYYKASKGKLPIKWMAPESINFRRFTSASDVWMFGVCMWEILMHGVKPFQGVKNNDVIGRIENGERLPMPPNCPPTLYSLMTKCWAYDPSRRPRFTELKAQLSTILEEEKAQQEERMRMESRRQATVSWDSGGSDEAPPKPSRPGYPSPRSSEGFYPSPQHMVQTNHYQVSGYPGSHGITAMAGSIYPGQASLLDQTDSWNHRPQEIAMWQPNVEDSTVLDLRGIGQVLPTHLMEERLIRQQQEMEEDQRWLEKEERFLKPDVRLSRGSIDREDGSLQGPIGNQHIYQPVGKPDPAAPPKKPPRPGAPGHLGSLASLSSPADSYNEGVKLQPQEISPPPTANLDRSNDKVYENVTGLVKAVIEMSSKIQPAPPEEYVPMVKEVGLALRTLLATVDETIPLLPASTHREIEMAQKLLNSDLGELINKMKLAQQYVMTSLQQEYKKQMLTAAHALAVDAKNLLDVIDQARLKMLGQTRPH
Protocol: as §2

[11] = tested on: PI3KCγ; experiment: Kinome analysis (panel of kinases); type: biochemical; conditions: 1 μM
Protocol: as §2

[12] = target: CK1 γ2 (Homo sapiens, UniProt P78368); experiment: Kinome analysis (panel of kinases); type: biochemical
Protocol: as §2

[13] = target: RSK2 (Homo sapiens, UniProt P51812); experiment: Kinome analysis (panel of kinases); type: biochemical
Sequence of RSK2 (P51812 whole entry, species assumed): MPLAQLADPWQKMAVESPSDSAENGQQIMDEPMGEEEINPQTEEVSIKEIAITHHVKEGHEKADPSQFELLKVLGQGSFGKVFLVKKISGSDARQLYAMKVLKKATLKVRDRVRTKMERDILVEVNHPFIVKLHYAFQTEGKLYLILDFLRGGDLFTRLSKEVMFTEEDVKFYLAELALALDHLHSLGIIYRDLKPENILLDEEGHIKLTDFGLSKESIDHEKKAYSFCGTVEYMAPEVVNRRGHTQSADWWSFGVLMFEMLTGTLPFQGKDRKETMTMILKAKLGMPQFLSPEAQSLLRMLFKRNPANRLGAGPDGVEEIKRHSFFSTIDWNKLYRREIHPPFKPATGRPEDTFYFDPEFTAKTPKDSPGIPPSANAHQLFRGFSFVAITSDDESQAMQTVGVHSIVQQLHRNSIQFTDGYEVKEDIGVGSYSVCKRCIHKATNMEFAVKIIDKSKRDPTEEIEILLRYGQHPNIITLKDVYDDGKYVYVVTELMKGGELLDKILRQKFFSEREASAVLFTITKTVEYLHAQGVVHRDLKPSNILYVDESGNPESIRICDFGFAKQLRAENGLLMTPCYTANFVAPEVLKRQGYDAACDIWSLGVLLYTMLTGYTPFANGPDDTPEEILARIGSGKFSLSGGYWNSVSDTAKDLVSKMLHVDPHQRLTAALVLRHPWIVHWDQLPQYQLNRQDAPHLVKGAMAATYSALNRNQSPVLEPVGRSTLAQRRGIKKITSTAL
Protocol: as §2

[14] = target: PI3KC2 α (Homo sapiens, UniProt O00443); experiment: Kinome analysis (panel of kinases); type: biochemical
Protocol: as §2

[15] = target: EphB4 (Homo sapiens, UniProt P54760); experiment: Kinome analysis (panel of kinases); type: biochemical
Protocol: as §2

[16] = target: FMS (Homo sapiens, UniProt P07333); experiment: Kinome analysis (panel of kinases); type: biochemical
Sequence of FMS (P07333 20-972, species assumed): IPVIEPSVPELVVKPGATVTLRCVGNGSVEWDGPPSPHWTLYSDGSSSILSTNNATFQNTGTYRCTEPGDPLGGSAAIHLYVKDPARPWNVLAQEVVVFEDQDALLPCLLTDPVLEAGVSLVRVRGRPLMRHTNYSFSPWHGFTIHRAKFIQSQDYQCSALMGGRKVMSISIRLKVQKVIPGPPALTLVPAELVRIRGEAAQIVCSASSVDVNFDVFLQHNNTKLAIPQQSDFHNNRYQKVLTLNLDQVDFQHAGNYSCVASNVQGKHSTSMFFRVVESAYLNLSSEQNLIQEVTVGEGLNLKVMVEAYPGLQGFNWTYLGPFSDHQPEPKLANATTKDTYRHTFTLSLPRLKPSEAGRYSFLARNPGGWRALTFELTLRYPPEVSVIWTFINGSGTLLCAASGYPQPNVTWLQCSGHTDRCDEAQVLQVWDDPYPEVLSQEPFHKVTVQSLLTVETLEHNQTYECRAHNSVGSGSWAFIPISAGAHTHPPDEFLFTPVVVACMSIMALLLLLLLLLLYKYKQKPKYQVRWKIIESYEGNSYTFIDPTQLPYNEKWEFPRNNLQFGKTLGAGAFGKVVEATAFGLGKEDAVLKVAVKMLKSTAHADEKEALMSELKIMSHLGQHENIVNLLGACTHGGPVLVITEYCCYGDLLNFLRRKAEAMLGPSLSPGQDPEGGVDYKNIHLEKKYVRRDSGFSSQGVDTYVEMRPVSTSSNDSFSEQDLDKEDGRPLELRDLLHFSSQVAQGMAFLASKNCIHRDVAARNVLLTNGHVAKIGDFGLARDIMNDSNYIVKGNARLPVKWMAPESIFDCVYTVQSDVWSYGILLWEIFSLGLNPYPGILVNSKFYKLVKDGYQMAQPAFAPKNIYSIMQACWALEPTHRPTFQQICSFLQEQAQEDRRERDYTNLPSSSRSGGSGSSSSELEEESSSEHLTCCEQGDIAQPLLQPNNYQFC
Protocol: as §2

[17] = target: CLK4 (Homo sapiens, UniProt Q9HAZ1); experiment: Kinome analysis (panel of kinases); type: biochemical
Protocol: as §2

[18] = target: PDGFRβ (Homo sapiens, UniProt P09619); experiment: Kinome analysis (panel of kinases); type: biochemical
Protocol: as §2

[19] = target: CLK1 (Homo sapiens, UniProt P49759); experiment: Kinome analysis (panel of kinases); type: biochemical
Protocol: as §2

[20] = target: CaMK1 δ (Homo sapiens, UniProt Q8IU85); experiment: Kinome analysis (panel of kinases); type: biochemical
Protocol: as §2

[21] = target: RSK3 (Homo sapiens, UniProt Q15349); experiment: Kinome analysis (panel of kinases); type: biochemical
Sequence of RSK3 (Q15349 whole entry, species assumed): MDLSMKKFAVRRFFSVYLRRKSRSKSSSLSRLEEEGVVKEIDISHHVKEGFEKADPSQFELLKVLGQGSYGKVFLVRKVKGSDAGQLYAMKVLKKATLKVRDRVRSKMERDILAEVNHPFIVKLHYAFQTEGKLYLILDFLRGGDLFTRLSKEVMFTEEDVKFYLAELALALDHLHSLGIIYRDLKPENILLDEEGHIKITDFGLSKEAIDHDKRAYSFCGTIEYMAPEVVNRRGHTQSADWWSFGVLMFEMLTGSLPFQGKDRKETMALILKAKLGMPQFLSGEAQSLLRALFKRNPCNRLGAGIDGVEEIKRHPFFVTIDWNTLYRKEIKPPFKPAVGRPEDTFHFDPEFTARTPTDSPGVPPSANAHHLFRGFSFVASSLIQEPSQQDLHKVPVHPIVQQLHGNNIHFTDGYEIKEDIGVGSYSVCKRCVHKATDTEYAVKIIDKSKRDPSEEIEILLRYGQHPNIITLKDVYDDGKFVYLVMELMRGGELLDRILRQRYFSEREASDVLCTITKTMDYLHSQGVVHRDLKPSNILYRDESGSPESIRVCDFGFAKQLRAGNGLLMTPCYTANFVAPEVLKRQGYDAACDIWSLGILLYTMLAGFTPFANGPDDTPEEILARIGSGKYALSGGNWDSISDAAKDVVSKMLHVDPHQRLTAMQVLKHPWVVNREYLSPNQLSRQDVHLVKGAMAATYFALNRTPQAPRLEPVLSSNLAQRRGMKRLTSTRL
Protocol: as §2

[22] = target: Ron (Homo sapiens, UniProt Q04912); experiment: Kinome analysis (panel of kinases); type: biochemical
Protocol: as §2

[23] = tested on: iHeps; experiment: Gene expression profiles of treated iHeps (Luminex); type: cell-based, human
Protocol: Cells were lysed using RLT buffer (Qiagen) or Trizol (Invitrogen) and purified using the Mini-RNeasy kit (Qiagen). Gene expression was determined using Luminex analysis, as previously described. Briefly, total RNA was immobilized on a Qiagen turbo capture 384-well plate, and reverse-transcribed using oligodT priming A biotinylated FlexMap tag sequence unique to each gene of interest and a phosphorylated downstream probe were then added to resulting cDNAs to generate biotinylated FlexMap-tagged amplicons. Universal PCR was then performed for 35 cycles using a biotinylated T7 forward primer and T3 reverse primer in buffer with dNTPs and Taq polymerase. FlexMap microsphere beads conjugated with antitag oligonucleotides were then added and allowed to hybridize. Amplicons were captured by streptavidin-phyoerythrin, and 100 events per bead were analyzed for internal bead color and phyoerythrin reporter fluorescence on a Luminex FlexMap 3D analyzer. Data for replicate loadings, expressed in mean fluorescent intensity of at least 100 beads per sample, were scaled to the human transferrin gene and row-normalized for heat map representation using GeneE open software (Broad Institute).
as §1
Euclidian clustering analyses groups untreated cells with fetal hepatocytes and treated cells with mature hepatocytes (FIG. 4C left). Of particular interest are ABC transporters, CYP3A4 and GSTP1 expression levels. ABC transporters are known to mature after birth. ABCB11, also known as bile-salt export pump (BSEP), increased ˜3 fold and ˜4 fold in expression levels with FPH2 and FH1 treatment, respectively, compared to untreated iHeps. In contrast, GSTP1 expression, whose levels decrease with maturity, remained low upon FPH2 and FH1 treatment compared to untreated iHeps (FIG. 4C right).

Cc1ccc(Cl)cc1N(CC(=O)Nc1c(F)cccc1F)S(C)(=O)=O [FPH2, 2-(N-(5-chloro-2-methylphenyl)methylsulfonamido)-N-(2,6-difluorophenyl)acetamide]
albumin staining (immunofluorescent) ([1]; treated iHeps): dramatic increases | hepatocyte phenotype of treated iHeps ([1]; treatment from day 21, 9 days): more mature hepatocyte phenotypes | inhibition at 1 µM [2]: 6.7 to 18.4% | inhibition at 1 µM [3]: 6.7 to 18.4% | inhibition at 1 µM [4]: 6.7 to 18.4% | inhibition at 1 µM [5]: 6.7 to 18.4% | inhibition at 1 µM [6]: 6.7 to 18.4% | inhibition at 1 µM [7]: 23% | remaining activity at 1 µM [7]: 77% | inhibition at 1 µM [8]: 6.7 to 18.4% | inhibition at 1 µM [9]: 6.7 to 18.4% | inhibition at 1 µM [10]: 6.7 to 18.4% | PI3KCγ inhibition [11]: 6.7-18.4% | inhibition at 1 µM [12]: 6.7 to 18.4% | inhibition at 1 µM [13]: 6.7 to 18.4% | inhibition at 1 µM [14]: 6.7 to 18.4% | inhibition at 1 µM [15]: 18.4 to 30% | inhibition at 1 µM [16]: 28% | remaining activity at 1 µM [16]: 72% | inhibition at 1 µM [17]: 6.7 to 18.4% | inhibition at 1 µM [18]: 6.7 to 18.4% | inhibition at 1 µM [19]: 6.7 to 18.4% | inhibition at 1 µM [20]: 6.7 to 18.4% | inhibition at 1 µM [21]: 6.7 to 18.4% | inhibition at 1 µM [22]: 6.7 to 18.4% | ABCB11 (BSEP) expression level increase compared to untreated iHeps [23]: ~3 fold | GSTP1 expression compared to untreated iHeps [23]: remained low
